Measured values published in patent US11999727B2 (Tango Therapeutics, Inc., priority 2020, dated 2024).

Assays:
PRMT5 [1] = molecular target: T1, PRMT5 (Homo sapiens, UniProt O14744); test: PRMT5 biochemical IC50 assay with MTA as cofactor; conditions: PRMT5, MTA as cofactor; read-out: MTA IC50
T1 construct: purchased Viva (custom protein)

[2] = tested on: HAP1 MTAP-intact cell line; test: SDMA in-cell western assay, HAP1 MTAP-intact; assay type: cell-based; conditions: Homo sapiens, HAP1, SDMA in-cell western, HAP1 MTAP-intact; read-out: MTAP HAP1 intact IC50
Procedure, shortened: (§1)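 MTAP-null vs endogenous-MTAP HAP1 isogenic cells; in-cell western SDMA readout; IC50 per line.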

PRMT5 [3] = molecular target: T1, PRMT5; test: PRMT5 biochemical IC50 assay with SAM as cofactor; conditions: PRMT5, SAM as cofactor; read-out: SAM IC50
PRMT5 [4] = molecular target: T1, PRMT5; test: PRMT5 biochemical IC50 assay with no cofactor; conditions: PRMT5, no cofactor
Text: Table 1 indicates IC50 values (μM) against PRMT5 for exemplary compounds in the presence of SAM as cofactor, with no cofactor, and with MTA as cofactor, respectively (columns 4-6). […] Ki values can be calculated from the IC50 values as described in the Examples section. As detailed in the Examples section, for the assay performed in the presence of SAM, IC50=Ki×1.5 (Ki=IC50/1.5).

[5] = tested on: HAP1 MTAP-deleted cell line; test: Viability assay, MTAP-deleted cell line; assay type: cell-based; conditions: Homo sapiens, read-out: HAP1 MTAP deleted viability
Text: Table 1 additionally indicates IC50 values in a viability assay for the MTAP-deleted cell line (column 10), indicating the effect of treatment with compound on cell survival.

[6] = tested on: HAP1 MTAP-deleted cell line; test: SDMA in-cell western assay, HAP1 MTAP-deleted; assay type: cell-based; conditions: for IC50: HAP1 MTAP-deleted
Procedure, shortened: as §1

[7] = HAP1, viability assay, MTAP-deleted cell line
[8] = Homo sapiens, HAP1, SDMA in-cell western, read-out: HAP 1 MTAP deleted IC50
[9] = IC50 ratio HAP1 MTAP-intact / HAP1 MTAP-deleted, SDMA in-cell western
[10] = Homo sapiens, HAP1, SDMA in-cell western, read-out: HAP1 MTAP deleted IC50
[11] = HAP1, viability IC50, MTAP-deleted cell line
[12] = read-out: No Cofactor/ rel IC50
[13] = HAP1, viability, HAP1 MTAP-deleted cell line
[14] = IC50 ratio HAP1 MTAP-intact vs HAP1 MTAP-deleted, SDMA in-cell western
[15] = HAP1, viability assay, HAP1 MTAP-deleted

T1 sequence (O14744 whole entry): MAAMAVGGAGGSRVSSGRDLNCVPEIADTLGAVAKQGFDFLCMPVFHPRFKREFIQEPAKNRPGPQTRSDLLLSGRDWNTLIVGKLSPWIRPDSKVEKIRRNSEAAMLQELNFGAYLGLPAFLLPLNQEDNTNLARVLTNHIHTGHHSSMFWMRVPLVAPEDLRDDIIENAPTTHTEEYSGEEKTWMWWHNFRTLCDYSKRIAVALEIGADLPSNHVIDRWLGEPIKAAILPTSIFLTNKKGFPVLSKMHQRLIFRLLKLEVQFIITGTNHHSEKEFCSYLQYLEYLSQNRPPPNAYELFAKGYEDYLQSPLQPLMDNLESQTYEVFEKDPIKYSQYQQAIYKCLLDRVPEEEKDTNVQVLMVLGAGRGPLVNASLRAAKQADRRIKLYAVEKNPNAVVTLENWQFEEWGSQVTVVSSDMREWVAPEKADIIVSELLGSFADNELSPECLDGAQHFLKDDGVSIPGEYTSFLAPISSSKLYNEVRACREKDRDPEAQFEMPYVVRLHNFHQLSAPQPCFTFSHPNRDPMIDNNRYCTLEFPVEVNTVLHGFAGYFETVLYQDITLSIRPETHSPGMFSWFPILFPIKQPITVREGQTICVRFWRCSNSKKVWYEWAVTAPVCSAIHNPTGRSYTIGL
T1 sequence (Q9BQA1 whole entry partner): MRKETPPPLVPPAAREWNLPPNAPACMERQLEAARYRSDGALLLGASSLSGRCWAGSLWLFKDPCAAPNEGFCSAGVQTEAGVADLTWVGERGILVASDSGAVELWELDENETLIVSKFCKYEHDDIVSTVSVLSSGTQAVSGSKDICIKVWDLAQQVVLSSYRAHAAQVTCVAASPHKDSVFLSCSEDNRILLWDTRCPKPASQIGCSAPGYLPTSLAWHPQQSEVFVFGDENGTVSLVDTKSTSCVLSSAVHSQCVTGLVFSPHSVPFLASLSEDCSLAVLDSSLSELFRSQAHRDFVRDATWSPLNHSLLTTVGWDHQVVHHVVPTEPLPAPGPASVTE

Structure (SMILES)	IC50 (PRMT5 [1]) [nM]	IC50 [2] [nM]	IC50 (PRMT5 [3]) [nM]	IC50 (PRMT5 [4]; read-out: No Cofactor/rel IC50) [nM]	IC50 [6, 8] [nM]	IC50 [6, 10] [nM]	IC50 (PRMT5 [4]; [12]) [nM]	IC50 ([6]; SDMA in-cell western, read-out: HAP1 MTAP deleted IC50) [nM]	IC50 [5, 7] [nM]	MTAP intact/deleted ratio [6, 9]	IC50 [5, 11] [nM]	IC50 [5, 13] [nM]	MTAP intact/deleted ratio [6, 14]	IC50 [5, 15] [nM]
C[C@@H]1CC[C@@H](c2ccc(OC3CCOC3)cc2)N(C(=O)C(=O)Nc2cncc(C(N)=O)c2)C1 (mixture of isomers) [Compound 264, rac-5-{2-[(2R,5S)-5-Methyl-2-[4-(oxolan-3-yloxy)phenyl]piperidin-1-yl]-2-oxoacetamido}pyridine-3-carboxamide]	50 to 500	> 1000	50 to 500	50 to 500		< 100			1000 to 10000	A (an IC50 ratio greater than or equal to 10 fold)				
C[C@@H]1[C@@H](C)CC[C@H](c2ccccc2)N1C(=O)C(=O)Nc1cncc(C(N)=O)c1 (single isomer, unassigned) [Compound 483]	> 500	> 1000	> 500	> 500		> 1000			> 10000	C (an IC50 ratio of less than 3 fold)				
CC(=O)Oc1ccc([C@H]2CC[C@H](C)CN2C(=O)C(=O)Nc2cncc(C(N)=O)c2)cc1 (single isomer, unassigned) [Compound 604, 4-(1-(2-((5-carbamoylpyridin-3-yl)amino)-2-oxoacetyl)-5-methylpiperidin-2-yl)phenyl acetate]	50 to 500	100 to 1000	< 50	50 to 500	< 100					A (an IC50 ratio greater than or equal to 10 fold)	< 1000			
C[C@@H]1CC[C@@H]([C@H]2CCC[C@@H](O)C2)N(C(=O)C(=O)Nc2cncc(C(N)=O)c2)C1 (single isomer, unassigned) [Compound 531]	50 to 500	> 1000	50 to 500	> 500	> 1000					B (an IC50 ratio greater than or equal to 3 fold but lower than 10 fold)	> 10000			
C[C@H]1CC[C@H](c2ccc3sc(C4CCN(C)CC4)nc3c2)N(C(=O)C(=O)Nc2cncc(C(N)=O)c2)C1 (single isomer, unassigned) [Compound 1255]	< 50	< 100	50 to 500		< 100		< 50			A (an IC50 ratio greater than or equal to 10 fold)		< 1000		
CC1(C)CCC[C@@H]2CN(C(=O)C(=O)Nc3cncc(C(N)=O)c3)CC[C@H]21 (single isomer, unassigned) [Compound 193]	< 50	> 1000	50 to 500	50 to 500		< 100			1000 to 10000	A (an IC50 ratio greater than or equal to 10 fold)				
CCc1cc(NC(=O)C(=O)N2C[C@@H](C)CC[C@@H]2c2ccc3sc(C4CCCN4C)nc3c2)cnc1N (stereo partly drawn) [Compound 1282, N-(6-amino-5-ethylpyridin-3-yl)-2-((2R,5S)-5-methyl-2-(2-(1-methylpyrrolidin-2-yl)benzo[d]thiazol-5-yl)piperidin-1-yl)-2-oxoacetamide]	< 50	100 to 1000	50 to 500		< 100		< 50			A (an IC50 ratio greater than or equal to 10 fold)		< 1000		
CCc1cc(NC(=O)C(=O)N2C[C@H](C)CC[C@H]2c2ccc3c(cnn3CCN(C)C)c2)cnc1N (single isomer, unassigned) [Compound 1374]	< 50	100 to 1000	50 to 500		< 100		< 50			A (an IC50 ratio greater than or equal to 10 fold)		< 1000		
COc1ncc(NC(=O)C(=O)N2C[C@H](C)CC[C@H]2c2ccc3[nH]cnc3c2)cc1C(N)=O (single isomer, unassigned) [Compound 794]	< 50	> 1000	50 to 500	< 50		< 100				A (an IC50 ratio greater than or equal to 10 fold)				< 1000
CCc1cc(NC(=O)C(=O)N2CC(C)CCC2c2ccc3sc(C4CCN(C)CC4C)nc3c2)cnc1N (racemic) [Compound 1131, N-(6-amino-5-ethyl-3-pyridyl)-2-oxo-2-[rac-(2R,5S)-5-methyl-2-[2-[rac-(3R,4R)-1,3-dimethyl-4-piperidyl]-1,3-benzothiazol-5-yl]-1-piperidyl]acetamide]	< 50	< 100	< 50	< 50		< 100			< 1000				B (an IC50 ratio greater than or equal to 3 fold but lower than 10 fold)	

Continued, in another order:

IC50 (PRMT5 [1]) [nM]	IC50 [2] [nM]	IC50 (PRMT5 [3]) [nM]	IC50 (PRMT5 [4]; read-out: No Cofactor/rel IC50) [nM]	IC50 [6, 8] [nM]	IC50 [6, 10] [nM]	IC50 (PRMT5 [4]; [12]) [nM]	IC50 ([6]; SDMA in-cell western, read-out: HAP1 MTAP deleted IC50) [nM]	Structure (SMILES)	IC50 [5, 7] [nM]	MTAP intact/deleted ratio [6, 9]	IC50 [5, 11] [nM]	IC50 [5, 13] [nM]	MTAP intact/deleted ratio [6, 14]	IC50 [5, 15] [nM]
< 50	> 1000	> 500	50 to 500	100 to 1000				Cc1cc(NC(=O)C(=O)N2C[C@@H](C)CC[C@@H]2c2ccc3c(c2)CCNC3=O)cnc1N (single isomer, unassigned) [Compound 988]	1000 to 10000	A (an IC50 ratio greater than or equal to 10 fold)				
< 50	100 to 1000	50 to 500	< 50		< 100			Cc1cc(NC(=O)C(=O)N2C[C@H](C)CC[C@H]2c2cccc(N(C)C)c2)cnc1N (single isomer, unassigned) [Compound 386]	< 1000	A (an IC50 ratio greater than or equal to 10 fold)				
50 to 500	> 1000	50 to 500	50 to 500	100 to 1000				Cc1cc(NC(=O)C(=O)N2C[C@H](C)C[C@H](F)[C@@H]2c2ccc(F)cc2)cnc1N (racemic) [Compound 940, N-(6-amino-5-methyl-3-pyridyl)-2-[(2R,3R,5S)-3-fluoro-2-(4-fluorophenyl)-5-methyl-1-piperidyl]-2-oxo-acetamide]	1000 to 10000	A (an IC50 ratio greater than or equal to 10 fold)				
> 500	> 1000	> 500		> 1000		> 500		Cc1cc(NC(=O)C(=O)N2C[C@H](C)[C@H](OC(F)(F)F)C[C@H]2c2ccc(F)cc2)cnc1N (single isomer, unassigned) [Compound 1323]				> 10000		
> 500	> 1000	> 500	> 500		> 1000			C[C@H]1CC[C@H](c2ccc(N)nc2)N(C(=O)C(=O)Nc2cncc(C(N)=O)c2)C1 (single isomer, unassigned) [Compound 493]	> 10000	C (an IC50 ratio of less than 3 fold)				
> 500	> 1000	> 500	> 500		> 1000			Cc1c(NC(=O)C(=O)N2C[C@H](C)CC[C@H]2c2ccc(O)cc2)cnc(N)c1C (single isomer, unassigned) [Compound 391]	> 10000	C (an IC50 ratio of less than 3 fold)				
< 50	100 to 1000	50 to 500	< 50		< 100			CCc1cc(NC(=O)C(=O)N2C[C@H](C)CC[C@H]2c2ccc(N3CCN(CC)CC3)cc2)cnc1N (single isomer, unassigned) [Compound 1097]	< 1000				A (an IC50 ratio greater than or equal to 10 fold)	
> 500	> 1000	> 500	> 500				> 1000	[H][C@]1([C@]2([H])C[C@]3(C[C@H](O)C3)C2)CC[C@H](C)CN1C(=O)C(=O)Nc1cnc(N)c(C)c1 (single isomer, unassigned) [Compound 766]		C (an IC50 ratio of less than 3 fold)				> 10000
< 50	> 1000	50 to 500	50 to 500	< 100				C[C@@H]1CC[C@@H](c2ccc(F)c(O)c2)N(C(=O)C(=O)Nc2cncc(C(N)=O)c2)C1 (racemic) [Compound 540, 5-[[2-[(2R,5S)-2-(4-fluoro-3-hydroxy-phenyl)-5-methyl-1-piperidyl]-2-oxo-acetyl]amino]pyridine-3-carboxamide]		A (an IC50 ratio greater than or equal to 10 fold)	< 1000			
